From patent US20090192327A1, “METHODS AND COMPOSITIONS FOR INHIBITING BIOFILMS” (Sequoia Sciences, Inc., priority 2004, published 2009)
Where “and” joins values, the source holds several entries; their conditions need not be identical. Equal values may be shown once. Read-outs that look alike come from different tables or passages of the source.

What was measured:
Pseudomonas aeruginosa [1] = assay: Minimum inhibitory concentration (NCCLS broth microdilution); assay type: cell-based; conditions: LB media with 0.2% glucose; 35° C. for 20-24 hours
Protocol: The minimum inhibitory concentrations (MICs) for several of the specific biofilm inhibitors described herein were determined against several targets, including P. aeruginosa, E. coli, and Staphylococcus aureus. The MICs of the biofilm inhibitors were measured using the reference broth microdilution method recommended by the National Committee for Clinical Laboratory Standards (NCCLS). […] In each assay, positive and negative controls were employed, wherein the positive control included an antimicrobial agent with a known potency range that was used to ensure proper assay performance. The negative control, generally, included the solvent in which the test compounds were dissolved. In this example, the wells correlating to the negative controls included ethanol (without any biofilm inhibitors). […] Thus, each well contained a final volume of approximately 200 μl (not including the volume of the concentrated inhibitor). […] After bacterial inoculation and loading of test and control samples, the plate was incubated in an ambient air environment at 35° C. for 20-24 hours. The plate was subsequently rinsed, stained, and analyzed in accordance with the procedures described in Example 1. […] The minimum inhibitory concentrations were calculated as the lowest inhibitor concentration at which biofilm inhibition was observed.

Pseudomonas aeruginosa [2] = assay: Microtiter plate biofilm inhibition assay (crystal violet); assay type: cell-based; conditions: 10 μg/ml; LB media with 0.2% glucose; 24 hours at room temperature; average of three wells
Protocol: A microtiter plate assay was used to quantitatively measure the effect each tested compound had on the ability of bacteria to form a biofilm. In this example, a concentrated solution of each compound tested was loaded separately into three separate wells of a polystyrene microtiter plate. In addition, each assay included triplicate wells correlating to negative and positive controls. For the positive controls, biofilm inhibitors of known activity were used, whereas no inhibitors were added to wells correlating to negative controls. […] Thus, each well contained a final volume of approximately 200 μl (not including the volume of the concentrated inhibitor). […] The microtiter plates were then placed on a shaker for 24 hours at room temperature. After the 24 hour incubation period, the microtiter plate was removed from the shaker, rinsed, and stained. During the rinsing step, the test compound, media, and bacterial inoculum solution was drained from the plate, approximately 300 μl of 0.1M phosphate buffered saline (PBS) was added to each well, which was subsequently drained from the plate. The rinsing step removed any suspended cells from the assay. 0.1% crystal violet stain was added to each well for approximately 20 minutes. Next, the crystal violet solution was drained from the microtiter plate. The plate was rinsed with PBS as described above four (4) times to remove any excess stain from the plate. Following the PBS rinsing steps, the plate was eluted with 250 μl/well of ethanol, which improved the detection of the stain. The plate was immediately analyzed spectrophotometrically at 540 nm using a microtiter plate reader. The inhibitory effect each compound had on the bacteria's ability to form a biofilm on the surface of each well was determined as follows: The absorbance values observed for each set of three (3) wells correlating with a test compound or control were averaged. The average absorbance value for each test compound was compared to the average absorbance value of the negative control (the positive control was employed to verify proper assay function). In general, biofilm inhibition activity is inversely proportional to absorbance values, whereby, for example, low absorbance values correlate with significant inhibition activity and high absorbance values correlate with small or no inhibition activity. The approximate percent inhibition observed for each compound was calculated by comparing the average absorbance value for each test compound to the average absorbance value for the negative controls. Table 2 summarizes the average percent inhibition observed for the tested compounds listed against biofilms generated by Pseudomonas aeruginosa.

P. aeruginosa = conditions: 10 μg/mL
Protocol: In general, flow cell analysis begins by inoculating a microorganism into test and control flow cells along with the appropriate growth media (which may vary depending upon the organism involved). The microorganisms are maintained in the flow cells until they have produced biofilms having the desired coverage and thickness. Thereafter, the test flow cells are treated with appropriate concentrations of test inhibitors. […] Such negative controls may be used as reference points when measuring biofilm inhibition activity.
After the appropriate flow cells are treated with the test inhibitors, Live/Dead stain is applied to each flow cell for approximately 45 minutes. Any currently-available Live/Dead stain may be employed in this procedure, such as LIVE BacLight™ Bacterial Gram stain (Molecular Probes, Inc., Eugene, Oreg., USA). The biofilm is subsequently rinsed with sterile media to remove excess stain, and the sample is transferred to a confocal microscope for imaging. The Live/Dead stain differentially stains the bacterial cells with green for Live and red for Dead. In a flow cell environment, it is generally understood that bacteria require the presence of biofilms to propagate. Accordingly, the activity of a biofilm inhibitor may be indirectly measured by comparing the number of live bacterial cells included in a flow cell that contained a test inhibitor to that of a negative control.
The negative control flow cells included the inoculum in LB media with 0.2% glucose without any inhibitors. […] The test and control cells were subsequently stained and analyzed as described above.
In this example, the number of live colony forming units (CFU) detected in the sample flow cells were compared to that of the negative control to indirectly measure biofilm inhibition.

Staphylococcus aureus = assay: Minimum inhibitory concentration (NCCLS broth microdilution); assay type: cell-based; conditions: LB media with 0.2% glucose; 35° C. for 20-24 hours
Protocol: (§1) The minimum inhibitory concentrations (MICs) for several of the specific biofilm inhibitors described herein were determined against several targets, including P. aeruginosa, E. coli, and Staphylococcus aureus. The MICs of the biofilm inhibitors were measured using the reference broth microdilution method recommended by the National Committee for Clinical Laboratory Standards (NCCLS).
(§2) […]. The negative control, generally, included the solvent in which the test compounds were dissolved. In this example, the wells correlating to the negative controls included ethanol (without any biofilm inhibitors).
(§3) In this example, 150 μl of sterile media was added to each well (LB media with 0.2% glucose), along with appropriate volumes of concentrated solutions of the inhibitors to be tested, followed by 50 μl of bacterial inoculum. Thus, each well contained a final volume of approximately 200 μl (not including the volume of the concentrated inhibitor). […]. The plate was subsequently rinsed, stained, and analyzed in accordance with the procedures described in Example 1.
(§4) Tables 7, 8, and 9 summarize the data observed and, specifically, the MICs calculated for the several compounds referenced therein against P. aeruginosa, E. coli, and S. aureus, respectively. The minimum inhibitory concentrations were calculated as the lowest inhibitor concentration at which biofilm inhibition was observed.

Escherichia coli = assay: as above; assay type: cell-based; conditions: LB media with 0.2% glucose; 35° C. for 20-24 hours
Protocol: as §1, §2, §3, §4

[3] = live CFU compared to negative control flow cell

SMILES	MIC (μg/mL) - Pseudomonas aeruginosa (Pseudomonas aeruginosa [1]) [µg/mL]	Biofilm Inhibition- Pseudomonas aeruginosa (Pseudomonas aeruginosa [2]) [%]	further results
C[C@@H]1C[C@@H](C(=O)O)C2CC[C@]3(C)C(=CCC4[C@@]5(C)C[C@@H](O)[C@H](O)C(C)(C)C5CC[C@]43C)[C@@H]2[C@]1(C)O (stereo partly shown) [Compound 192]	>10	32	
COc1cc(/C=C/C(=O)OC2C(O)CC3(C)C(CCC4(C)C3CC=C3C5C(C)C(C)CCC5(C(=O)O)CCC34C)C2(C)C)ccc1O (stereo not drawn) [Compound 116, 3α-O-trans-feruloyl-2α-hydroxy-12-ursen-28-oic acid]	>10		Flow Cell with Compound 116 (CFU), Average (P. aeruginosa; LB media with 0.2% glucose, applied approximately 4 hours after inoculum, average): 1.76E+06 CFU; Flow Cell with Compound 116 (CFU), single flow cell (P. aeruginosa; LB media with 0.2% glucose, applied approximately 4 hours after inoculum, individual values): 2.06E+06 CFU and 1.46E+06 CFU; Log Reduction (P. aeruginosa; [3]): 0.28; Percent Reduction (P. aeruginosa; [3]): 47%; Percent Reduction (P. aeruginosa; live CFU compared to negative control flow cell, listed as compound 116): ~47%
C[C@@H]1[C@H]2C3=CCC4[C@@]5(C)CC[C@H](O)C(C)(C)C5CC[C@@]4(C)[C@]3(C)CC[C@@]2(C(=O)O)CC[C@]1(C)O (stereo partly shown) [Compound 195]	>10	25	MIC (μg/mL) - Staphylococcus aureus (Staphylococcus aureus): >8 µg/mL
C[C@@H]1CC[C@]2(C(=O)O)CC[C@]3(C)C(=CCC4[C@@]5(C)C[C@@H](O)[C@H](O)C(C)(C)C5CC[C@]43C)[C@@H]2[C@]1(C)O (stereo partly shown) [Compound 203]	>10	43	
CC1(C)CC[C@]2(C(=O)O)CC[C@]3(C)C(=CC[C@@H]4[C@@]5(C)CC[C@H](O)C(C)(C)[C@@H]5CC[C@]43C)[C@@H]2C1 [Compound 225]			MIC (μg/mL) - Escherichia coli (Escherichia coli): >10 µg/mL
CC1(C)C[C@@H](C(=O)O)C2CCC3C(=CCC4C3(C)CCC3C4(C)C[C@@H](O)[C@H](O)C3(C)C)[C@@H]2C1 (stereo partly shown) [Compound 107]	>10	46	
C[C@@H]1[C@H]2C3=CC[C@@H]4[C@@]5(C)CC[C@H](OC(=O)/C=C\c6ccc(O)cc6)C(C)(C)[C@@H]5CC[C@@]4(C)[C@]3(C)CC[C@@]2(C(=O)O)CC[C@]1(C)O (relative stereo) [Compound 188, 3β-O-cis-p-coumaroyl-20β-hydroxy-12-ursen-28-oic acid]	>10		
C[C@H]1[C@H](CO)C[C@@H](C(=O)O)C2CC[C@]3(C)C(=CCC4[C@@]5(C)CC[C@H](O)C(C)(C)C5CC[C@]43C)[C@@H]21 (stereo partly shown) [Compound 99]	>10	30	MIC (μg/mL) - Staphylococcus aureus (Staphylococcus aureus): >32 µg/mL
C[C@H]1[C@H](C)CC[C@]2(C(=O)O)CCC3C(=CCC4[C@@]3(C)CCC3C(C)(C)[C@@H](OC(=O)/C=C/c5ccc(O)cc5)[C@H](O)C[C@@]34C)[C@H]12 (stereo partly shown) [Compound 189]	>10	35	
